In ChEMBL document CHEMBL3817786, “An Unusual Natural Product Primary Sulfonamide: Synthesis, Carbonic Anhydrase Inhibition, and Protein X-ray Structures of Psammaplin C” (J Med Chem, 2016):

How the values were obtained:
[1] = molecular target: Carbonic anhydrase 5A, mitochondrial (Homo sapiens, UniProt P35218); experiment: Inhibition of human recombinant carbonic anhydrase 5A expressed in Escherichia coli BL21 (DE3) by stopped-flow CO2 hydration assay
Carbonic anhydrase 7 = Carbonic anhydrase 7 (Homo sapiens, UniProt P43166); experiment: Inhibition of human recombinant carbonic anhydrase 7 expressed in Escherichia coli BL21 (DE3) by stopped-flow CO2 hydration assay
Carbonic anhydrase 14 = Carbonic anhydrase 14 (Homo sapiens, UniProt Q9ULX7); experiment: Inhibition of human recombinant carbonic anhydrase 14 expressed in Escherichia coli BL21 (DE3) by stopped-flow CO2 hydration assay
Carbonic anhydrase 13 = Carbonic anhydrase 13 (Homo sapiens, UniProt Q8N1Q1); experiment: Inhibition of human recombinant carbonic anhydrase 13 expressed in Escherichia coli BL21 (DE3) by stopped-flow CO2 hydration assay
Carbonic anhydrase 6 = Carbonic anhydrase 6 (Homo sapiens, UniProt P23280); experiment: Inhibition of human recombinant carbonic anhydrase 6 expressed in Escherichia coli BL21 (DE3) by stopped-flow CO2 hydration assay
Carbonic anhydrase 4 = Carbonic anhydrase 4 (Homo sapiens, UniProt P22748); experiment: Inhibition of human recombinant carbonic anhydrase 4 expressed in Escherichia coli BL21 (DE3) by stopped-flow CO2 hydration assay
Chain of Carbonic anhydrase 4 (P22748 whole entry): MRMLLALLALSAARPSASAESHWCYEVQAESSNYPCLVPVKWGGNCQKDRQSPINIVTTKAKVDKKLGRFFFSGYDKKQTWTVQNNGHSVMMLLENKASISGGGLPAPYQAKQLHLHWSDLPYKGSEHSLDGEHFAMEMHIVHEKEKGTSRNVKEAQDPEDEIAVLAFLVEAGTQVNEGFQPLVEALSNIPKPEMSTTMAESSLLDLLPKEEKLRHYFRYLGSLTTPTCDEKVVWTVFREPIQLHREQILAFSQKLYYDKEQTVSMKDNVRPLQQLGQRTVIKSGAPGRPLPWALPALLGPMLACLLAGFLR

Chain of Carbonic anhydrase 7 (P43166 whole entry): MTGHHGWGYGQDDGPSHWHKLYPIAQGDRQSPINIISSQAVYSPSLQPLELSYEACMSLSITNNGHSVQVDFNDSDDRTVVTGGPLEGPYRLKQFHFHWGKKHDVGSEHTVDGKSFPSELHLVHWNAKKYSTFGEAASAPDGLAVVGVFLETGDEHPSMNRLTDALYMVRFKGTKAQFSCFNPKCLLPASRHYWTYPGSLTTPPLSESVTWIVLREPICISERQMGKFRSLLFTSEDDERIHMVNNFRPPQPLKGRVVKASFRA
Chain of Carbonic anhydrase 13 (Q8N1Q1 whole entry): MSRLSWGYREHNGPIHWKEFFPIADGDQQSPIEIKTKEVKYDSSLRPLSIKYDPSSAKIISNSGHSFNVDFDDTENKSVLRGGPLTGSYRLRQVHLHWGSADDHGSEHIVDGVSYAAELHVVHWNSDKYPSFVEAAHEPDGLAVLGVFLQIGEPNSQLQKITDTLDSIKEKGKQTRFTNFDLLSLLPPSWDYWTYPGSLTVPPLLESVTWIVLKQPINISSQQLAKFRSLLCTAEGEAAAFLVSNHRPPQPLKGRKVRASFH
Chain of Carbonic anhydrase 5A, mitochondrial (P35218 whole entry): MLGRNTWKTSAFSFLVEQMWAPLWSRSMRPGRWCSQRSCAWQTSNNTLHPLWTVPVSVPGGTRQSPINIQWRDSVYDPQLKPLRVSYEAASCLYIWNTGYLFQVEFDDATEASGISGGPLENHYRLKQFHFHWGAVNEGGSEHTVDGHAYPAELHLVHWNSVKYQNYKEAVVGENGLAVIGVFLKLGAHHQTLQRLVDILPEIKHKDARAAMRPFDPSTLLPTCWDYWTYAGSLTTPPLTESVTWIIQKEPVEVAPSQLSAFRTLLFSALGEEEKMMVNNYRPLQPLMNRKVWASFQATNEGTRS
Chain of Carbonic anhydrase 14 (Q9ULX7 whole entry): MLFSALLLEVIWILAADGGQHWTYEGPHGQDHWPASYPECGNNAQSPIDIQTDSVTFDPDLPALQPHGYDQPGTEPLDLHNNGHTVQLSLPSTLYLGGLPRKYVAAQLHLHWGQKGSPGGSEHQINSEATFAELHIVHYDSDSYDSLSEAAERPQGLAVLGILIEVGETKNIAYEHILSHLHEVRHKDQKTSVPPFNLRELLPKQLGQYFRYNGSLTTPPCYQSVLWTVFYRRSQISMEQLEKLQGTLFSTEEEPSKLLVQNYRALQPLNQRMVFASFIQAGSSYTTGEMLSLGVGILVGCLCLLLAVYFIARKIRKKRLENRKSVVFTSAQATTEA
Chain of Carbonic anhydrase 6 (P23280 whole entry): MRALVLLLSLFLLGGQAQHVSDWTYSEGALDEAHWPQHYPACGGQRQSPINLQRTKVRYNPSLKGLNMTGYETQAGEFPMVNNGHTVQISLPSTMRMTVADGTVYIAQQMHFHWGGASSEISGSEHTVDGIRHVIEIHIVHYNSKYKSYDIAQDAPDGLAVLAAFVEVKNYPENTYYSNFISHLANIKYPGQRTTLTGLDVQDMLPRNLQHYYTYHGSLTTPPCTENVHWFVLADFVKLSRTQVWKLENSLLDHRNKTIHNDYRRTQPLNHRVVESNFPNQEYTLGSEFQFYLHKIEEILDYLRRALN

SMILES: NS(=O)(=O)CCNC(=O)/C(Cc1ccc(O)c(Br)c1)=N/O
- Ki [1]: 154 nM
- Ki (Carbonic anhydrase 7): 1.7 nM
- Ki (Carbonic anhydrase 14): 379 nM
- Ki (Carbonic anhydrase 13): 10600 nM
- Ki (Carbonic anhydrase 6): 9680 nM
- Ki (Carbonic anhydrase 4): 75.3 nM
